Source: patent US20250313546A1, “NUCLEIC ACID BINDERS” (UNIVERSITY OF STRATHCLYDE, priority 2022, published 2025)
Converted amounts (≈) assume the structure as drawn.

Experiments:
Test in all cases: Antibacterial MIC, broth microdilution (CLSI)
Assay type in all cases: cell-based
[1] = system: Enterococcus faecalis (ATCC 51299); settings: Enterococcus faecalis, ATCC51299; read-out: MIC80 E. faecalis
[2] = system: Staphylococcus aureus (ATCC 43300); settings: Staphylococcus aureus, ATCC43300; read-out: MIC80 S. aureus
[3] = system: Escherichia coli (ATCC 25922); settings: Escherichia coli, ATCC25922; read-out: MIC80 E. coli

| Structure (SMILES) | MIC80 [1] [µM] | MIC80 [2] [µM] | MIC80 [3] [µM] |
| --- | --- | --- | --- |
| Cn1cc(NC(=O)c2cc(NC(=O)c3ccc(/C=C/c4cnc5ccccc5c4)cc3)cn2C)cc1C(=O)NCCCCC(=N)N [II1, (E)-N-(5-amino-5-iminopentyl)-1-methyl-4-(1-methyl-4-(4-(2-(quinolin-3-yl)vinyl)benzamido)-1H-pyrrole-2-carboxamido)-1H-pyrrole-2-carboxamide] | > 100 | 25 to 100 (≈ 15.4 to 61.7 µg/mL) | > 100 |
| CN(C)c1ccc(/C=C/c2ccc(C(=O)Nc3cc(C(=O)Nc4cc(C(=O)NCCCCC(=N)N)n(C)c4)n(C)c3)cn2)cc1 [II2, (E)-N-(5-((5-((5-amino-5-iminopentyl)carbamoyl)-1-methyl-1H-pyrrol-3-yl)carbamoyl)-1-methyl-1H-pyrrol-3-yl)-6-(4-(dimethylamino)styryl)nicotinamide] | 5 to 25 (≈ 3.05 to 15.2 µg/mL) | 5 to 25 (≈ 3.05 to 15.2 µg/mL) | > 100 |
| Cn1cc(NC(=O)c2cc(NC(=O)c3ccc(/C=C/c4cnc5ccccc5c4)cc3)cn2C)cc1C(=O)NCCCCCC(=N)N [II3, (E)-N-(6-amino-6-iminohexyl)-1-methyl-4-(1-methyl-4-(4-(2-(quinolin-3-yl)vinyl)benzamido)-1H-pyrrole-2-carboxamido)-1H-pyrrole-2-carboxamide] | > 100 | 5 to 25 (≈ 3.15 to 15.8 µg/mL) | > 100 |
| CN(C)c1ccc(/C=C/c2ccc(C(=O)Nc3cc(C(=O)Nc4cc(C(=O)NCCCCCC(=N)N)n(C)c4)n(C)c3)cn2)cc1 [II4, (E)-N-(5-((5-((6-amino-6-iminohexyl)carbamoyl)-1-methyl-1H-pyrrol-3-yl)carbamoyl)-1-methyl-1H-pyrrol-3-yl)-6-(4-(dimethylamino)styryl)nicotinamide] | > 100 | 5 to 25 (≈ 3.12 to 15.6 µg/mL) | > 100 |
| CN(C)C(=O)c1cc(NC(=O)c2cc(NC(=O)c3ccc(/C=C/c4cnc5ccccc5c4)cc3)cn2C)cn1C [IVa16, (E)-N,N,1-trimethyl-4-(1-methyl-4-(4-(2-(quinolin-3-yl)vinyl)benzamido)-1H-pyrrole-2-carboxamido)-1H-pyrrole-2-carboxamide] | < 5 | < 5 | > 100 |
| CCCNC(=O)c1cc(NC(=O)c2cc(NC(=O)c3ccc(/C=C/c4cnc5ccccc5c4)cc3)cn2C)cn1C [IVa17, (E)-1-methyl-4-(1-methyl-4-(4-(2-(quinolin-3-yl)vinyl)benzamido)-1H-pyrrole-2-carboxamido)-N-propyl-1H-pyrrole-2-carboxamide] | < 5 | < 5 | > 100 |
| COCCNC(=O)c1cc(NC(=O)c2cc(NC(=O)c3ccc(/C=C/c4cnc5ccccc5c4)cc3)cn2C)cn1C [IVa18, (E)-N-(2-methoxyethyl)-1-methyl-4-(1-methyl-4-(4-(2-(quinolin-3-yl)vinyl)benzamido)-1H-pyrrole-2-carboxamido)-1H-pyrrole-2-carboxamide] | < 5 | < 5 | > 100 |
| CNC(=N)CCNC(=O)c1cc(NC(=O)c2cc(NC(=O)c3ccc(/C=C/c4ccc(C(F)(F)F)cc4)cc3)cn2C)cn1C [Ia2, (E)-N-(3-imino-3-(methylamino)propyl)-1-methyl-4-(1-methyl-4-(4-(4-(trifluoromethyl)styryl)benzamido)-1H-pyrrole-2-carboxamido)-1H-pyrrole-2-carboxamide] | – | < 5 | > 100 |
| CNC(=N)CCNC(=O)c1cc(NC(=O)c2cc(NC(=O)c3ccc(/C=C/c4ccc5ccccc5c4)cc3)cn2C)cn1C [Ia4, (E)-N-(3-imino-3-(methylamino)propyl)-1-methyl-4-(1-methyl-4-(4-(2-(naphthalen-2-yl)vinyl)benzamido)-1H-pyrrole-2-carboxamido)-1H-pyrrole-2-carboxamide] | – | 5 to 25 (≈ 3.01 to 15 µg/mL) | > 100 |
| CONC(=N)CCNC(=O)c1cc(NC(=O)c2cc(NC(=O)c3ccc(/C=C/c4cccc(OC)c4)cc3)cn2C)cn1C [Ia29, (E)-N-(3-imino-3-(methoxyamino)propyl)-4-(4-(4-(3-methoxystyryl)benzamido)-1-methyl-1H-pyrrole-2-carboxamido)-1-methyl-1H-pyrrole-2-carboxamide] | 5 to 25 (≈ 2.99 to 14.9 µg/mL) | < 5 | > 100 |
| [H]/N=C(\CCNC(=O)c1cc(NC(=O)c2cc(NC(=O)c3ccc(C=Cc4ccc5nonc5c4)cc3)cn2C)cn1C)NOC [Ia30, (E)-4-(4-(2-(benzo[c][1,2,5]oxadiazol-5-yl)vinyl)benzamido)-N-(5-((3-imino-3-(methoxyamino)propyl)carbamoyl)-1-methyl-1H-pyrrol-3-yl)-1-methyl-1H-pyrrole-2-carboxamide] | 5 to 25 (≈ 3.05 to 15.2 µg/mL) | 5 to 25 (≈ 3.05 to 15.2 µg/mL) | > 100 |
| [H]/N=C(\CCNC(=O)c1cc(NC(=O)c2cc(NC(=O)c3ccc(C=Cc4ccc(N(C)C)cc4)nc3)cn2C)cn1C)NOC [Ia31, (E)-6-(4-(dimethylamino)styryl)-N-(5-((5-((3-imino-3-(methoxyamino)propyl)carbamoyl)-1-methyl-1H-pyrrol-3-yl)carbamoyl)-1-methyl-1H-pyrrol-3-yl)nicotinamide] | 5 to 25 (≈ 3.06 to 15.3 µg/mL) | < 5 | > 100 |
| Cn1cc(NC(=O)c2cc(NC(=O)c3ccc(/C=C/c4cnc5ccccc5c4)cc3)cn2C)cc1C(=O)NCCC(=N)NCCN1CCSCC1 [Ia47, (E)-N-(3-imino-3-((2-thiomorpholinoethyl)amino)propyl)-1-methyl-4-(1-methyl-4-(4-(2-(quinolin-3-yl)vinyl)benzamido)-1H-pyrrole-2-carboxamido)-1H-pyrrole-2-carboxamide] | > 100 | 5 to 25 (≈ 3.59 to 17.9 µg/mL) | > 100 |
| Cn1cc(NC(=O)c2cc(NC(=O)c3ccc(/C=C/c4cnc5ccccc5c4)cc3)cn2C)cc1C(=O)NCCC(=N)NCCc1ccccc1 [Ia48, (E)-N-(3-imino-3-(phenethylamino)propyl)-1-methyl-4-(1-methyl-4-(4-(2-(quinolin-3-yl)vinyl)benzamido)-1H-pyrrole-2-carboxamido)-1H-pyrrole-2-carboxamide] | < 5 | < 5 | > 100 |
| [H]/N=C(\CCNC(=O)c1cc(NC(=O)c2cc(NC(=O)c3ccc(C=Cc4ccc(N(C)C)cc4)nc3)cn2C)cn1C)NCCc1ccccc1 [Ia49, (E)-6-(4-(dimethylamino)styryl)-N-(5-((5-((3-imino-3-(phenethylamino)propyl)carbamoyl)-1-methyl-1H-pyrrol-3-yl)carbamoyl)-1-methyl-1H-pyrrol-3-yl)nicotinamide] | > 100 | < 5 | > 100 |
| CC/N=C(/CCNC(=O)c1cc(NC(=O)c2cc(NC(=O)c3ccc(/C=C/c4cnc5ccccc5c4)cc3)cn2C)cn1C)NCC [Ia50, N—((Z)-3-(ethylamino)-3-(ethylimino)propyl)-1-methyl-4-(1-methyl-4-(4-((E)-2-(quinolin-3-yl)vinyl)benzamido)-1H-pyrrole-2-carboxamido)-1H-pyrrole-2-carboxamide] | 25 to 100 (≈ 16.1 to 64.5 µg/mL) | 25 to 100 (≈ 16.1 to 64.5 µg/mL) | > 100 |
| CC/N=C(/CCNC(=O)c1cc(NC(=O)c2cc(NC(=O)c3ccc(/C=C/c4ccc(N(C)C)cc4)nc3)cn2C)cn1C)NCC [Ia51, 6-((E)-4-(dimethylamino)styryl)-N-(5-((5-(((Z)-3-(ethylamino)-3-(ethylimino)propyl)carbamoyl)-1-methyl-1H-pyrrol-3-yl)carbamoyl)-1-methyl-1H-pyrrol-3-yl)nicotinamide] | 25 to 100 (≈ 15.9 to 63.8 µg/mL) | 25 to 100 (≈ 15.9 to 63.8 µg/mL) | > 100 |
| C/N=C(/CCNC(=O)c1cc(NC(=O)c2cc(NC(=O)c3ccc(/C=C/c4cccc(F)c4)cc3)cn2C)cn1C)NC [Ia64, 4-(4-((E)-3-fluorostyryl)benzamido)-1-methyl-N-(1-methyl-5-(((Z)-3-(methylamino)-3-(methylimino)propyl)carbamoyl)-1H-pyrrol-3-yl)-1H-pyrrole-2-carboxamide] | – | 5 to 25 (≈ 2.92 to 14.6 µg/mL) | – |
| C/N=C(/CCNC(=O)c1cc(NC(=O)c2cc(NC(=O)c3ccc(/C=C/c4ccc(F)cc4)nc3)cn2C)cn1C)NC [Ia65, 6-((E)-4-fluorostyryl)-N-(1-methyl-5-((1-methyl-5-(((Z)-3-(methylamino)-3-(methylimino)propyl)carbamoyl)-1H-pyrrol-3-yl)carbamoyl)-1H-pyrrol-3-yl)nicotinamide] | – | < 5 | – |
| CC[N+](C)(C)CCCNC(=O)c1cc(NC(=O)c2cc(NC(=O)c3ccc(/C=C/c4cccc(C(F)(F)F)c4)nc3)cn2C)cn1C [Ic20, (E)-N-ethyl-N,N-dimethyl-3-(1-methyl-4-(1-methyl-4-(6-(3-(trifluoromethyl)styryl)nicotinamido)-1H-pyrrole-2-carboxamido)-1H-pyrrole-2-carboxamido)propan-1-aminium] | – | 25 to 100 | – |
| CC[N+](C)(C)CCCNC(=O)c1cc(NC(=O)c2cc(NC(=O)c3ccc(/C=C/c4ccc(F)c(OC)c4)nc3)cn2C)cn1C [Ic21, (E)-N-ethyl-3-(4-(4-(6-(4-fluoro-3-methoxystyryl)nicotinamido)-1-methyl-1H-pyrrole-2-carboxamido)-1-methyl-1H-pyrrole-2-carboxamido)-N,N-dimethylpropan-1-aminium] | – | 25 to 100 | – |
| CC[N+](C)(C)CCCNC(=O)c1cc(NC(=O)c2cc(NC(=O)c3ccc(/C=C/c4ccc5nonc5c4)cc3)cn2C)cn1C [Ic22, (E)-3-(4-(4-(4-(2-(benzo[c][1,2,5]oxadiazol-5-yl)vinyl)benzamido)-1-methyl-1H-pyrrole-2-carboxamido)-1-methyl-1H-pyrrole-2-carboxamido)-N-ethyl-N,N-dimethylpropan-1-aminium] | – | 25 to 100 | – |
| CC[N+](C)(C)CCCNC(=O)c1cc(NC(=O)c2cc(NC(=O)c3ccc(/C=C/c4cnc5ccccc5c4)cc3)cn2C)cn1C [Ic23, (E)-N-ethyl-N,N-dimethyl-3-(1-methyl-4-(1-methyl-4-(4-(2-(quinolin-3-yl)vinyl)benzamido)-1H-pyrrole-2-carboxamido)-1H-pyrrole-2-carboxamido)propan-1-aminium] | – | 5 to 25 | – |
